Measurements reported in patent US20260262641A1 (priority 2023, published 2026).

Experiments:
Assay type in all cases: in vivo
[1] = tested on: ground pearl (Margarodes spp); test: Field trial in kikuyu turf, control of ground pearl, Sydney (Example 2); settings: for NDVI, Pre-spray: Pre-spray (baseline), kikuyu turf, Greenseeker; for Ground pearls/plot, Adults, Pre-spray / Ground pearls/plot, Eggs, Pre-spray / Ground pearls/plot, Adults, 56 DAA3 / Ground pearls/plot, Eggs, 56 DAA3 / NDVI, 56 DAA3: sc; for Ground pearls/plot, Adults, 56 DAA3 / Ground pearls/plot, Eggs, 56 DAA3: 200 g/ha; for Ground pearls/plot, Adults, 56 DAA3 / Ground pearls/plot, Eggs, 56 DAA3 / NDVI, 56 DAA3: 1344 h
Description: A field trial was conducted in kikuyu turf, to evaluate fenpyroximate for control of ground pearl (Margarodes spp). The trial was located at Sydney University, New South Wales (−33.888, 151.188), in an area with a known infestation of ground pearl.
All treatments were applied using a hand boom fitted with XR11004 nozzles, in a spray volume of 430 L/ha.
The ground pearl density by species was assessed by sampling 20 cores per plot and recording the number of eggs and adults, and Normalized Difference Vegetation Index (NDVI) was assessed 56 days after the third application using a Greenseeker.
(§1) All data was statistically analyzed using analysis of variance and Fisher's protected least significant different test (Fishers LSD). The level of significance for all tests was P<0.05.

[2] = tested on: ground pearl (Margarodes spp); test: Field trial in kikuyu turf, control of ground pearl, Robina (Example 6); settings: for Ground pearls/plot, Adults, Pre-spray / Ground pearls/plot, Eggs, Pre-spray: Pre-spray (baseline), 20 cores per plot; for density of ground pearl eggs and adults (in words) / turf vigor (in words): versus untreated, P<0.05
Description: A field trial was conducted in kikuyu turf, to evaluate fenpyroximate for control of ground pearl (Margarodes spp). The trial was located at Robina, Queensland (−28.069442, 153.401817), in an area with a known infestation of ground pearl.
All treatments were applied using a hand boom fitted with XC08 nozzles, in a spray volume of 443 L/ha.
The ground pearl density by species was assessed prior to the first application and again 21 days after the third application by sampling 20 cores per plot and recording the number of eggs and adults. Turf vigor was assessed on a 0 to 10 rating scale (0=dead; 10=best quality/color) prior to the first application and 42 days after the third application.
as §1

[3] = tested on: ground pearl (Margarodes spp); test: as above; settings: sc
[4] = versus untreated, P<0.05, with PE 6200

O=[N+]([O-])NC1=NCCN1Cc1ccc(Cl)nc1 [Kohinor 350 SC, Imidacloprid]
NDVI, Pre-spray [1]: 8.25
Ground pearls/plot, Adults, Pre-spray [1]: 10.5 a ground pearls/plot
Ground pearls/plot, Eggs, Pre-spray [1]: 9.0 a ground pearls/plot
Ground pearls/plot, Adults, 56 DAA3 [1]: 13.8 a ground pearls/plot
Ground pearls/plot, Eggs, 56 DAA3 [1]: 12.5 cd ground pearls/plot
NDVI, 56 DAA3 [1]: 7.8
density of ground pearl eggs (in words) [1, 4]: did not reduce
Turf vigor (0-10), Pre-spray [2]: 5.1
Ground pearls/plot, Adults, Pre-spray [2]: 5.7 ground pearls/plot
Ground pearls/plot, Eggs, Pre-spray [2]: 2.0 ground pearls/plot
density of ground pearl eggs and adults (in words) [2]: significantly reduced
turf vigor (in words) [2]: significantly improved
Turf vigor (0-10), 56 DAA3 [3]: 5.9 a

CN1COCN(Cc2cnc(Cl)s2)/C1=N\[N+](=O)[O-] [Meridian, Thiamethoxam]
NDVI, Pre-spray [1]: 7.5
Ground pearls/plot, Adults, Pre-spray [1]: 15.5 a ground pearls/plot
Ground pearls/plot, Eggs, Pre-spray [1]: 7.8 a ground pearls/plot
Ground pearls/plot, Adults, 56 DAA3 [1]: 9.8 a ground pearls/plot
Ground pearls/plot, Eggs, 56 DAA3 [1]: 8.5 abc ground pearls/plot
NDVI, 56 DAA3 [1]: 7.5
density of ground pearl adults (in words) [1, 4]: significantly reduced
density of ground pearl eggs (in words) [1, 4]: significantly reduced
Turf vigor (0-10), Pre-spray [2]: 5.1
Ground pearls/plot, Adults, Pre-spray [2]: 6.0 ground pearls/plot
Ground pearls/plot, Eggs, Pre-spray [2]: 3.0 ground pearls/plot
density of ground pearl eggs and adults (in words) [2]: significantly reduced
turf vigor (in words) [2]: significantly improved
Turf vigor (0-10), 56 DAA3 [3]: 6.0 a
